Reference: US4412998A, “Certain 4-(1-piperidino)-phenyl-nicotinates” (Merz & Company, priority 1979, dated 1983)

Assays:
[1] = cited from earlier work; for reduction of free fatty acids (in words): test animals, low dosage between 0.5 and 30 mg/kg body weight
[2] = Triglyceride reduction in rats on high-fat diet; format: in vivo, female Wistar rats; conditions: Rattus norvegicus, high fat diet 3 weeks, blood 18 hours after last dose, read-out: Triglyc. Red. in %
Experimental: (§1) Additionally, experiments on female Wistar rats were carried out. For a period of 3 weeks the animals received a special diet with a very high fat content. Starting from the second week, half the rats were treated with a dosage of 100 and 25 mg/kg body weight. After the third week blood samples were taken 18 hours after administration of the last dose. Triglyceride and cholesterol concentrations were compared with that of the untreted animals. Cholesterol and triglycerides were determined with the aid of the Boehringer enzymatic test.

[3] = Cholesterol reduction in rats on high-fat diet; format: in vivo, female Wistar rats; conditions: Rattus norvegicus, read-out: Chol. Red. in %
Experimental: as §1

in vivo = conditions: rat
ED50 in rat (Table 1) = format: in vivo
[4] = 100 mg/kg, high fat diet 3 weeks, blood 18 hours after last dose
[5] = high fat diet 3 weeks, blood 18 hours after last dose

SMILES	inhibition in vivo at 100 mg/kg [2]	inhibition in vivo at 100 mg/kg [3, 4]	LD50 (in vivo)	selectivity ratio (in vivo)	ED50 (ED50 in rat (Table 1))	also measured
OCc1cccnc1 [3-pyridyl carbinol]	–	–	–	–	–	reduction of free fatty acids (in words) [1]: great reduction of the free fatty acids
CC(C)(c1ccccc1)c1ccc(OC(=O)c2cccnc2)cc1 [Example 9, p-cumylphenyl nicotinate]	1%	24%	–	–	–	–
O=C(Oc1ccc(C23CC4CC(CC(C4)C2)C3)cc1)c1cccnc1 [Example 2, p-(1-adamantylphenyl)-nicotinate]	47%	28%	3200 mg/kg	47	68 mg/kg	–
CC(C)(C)c1cc(C2CCCCC2)ccc1OC(=O)c1cccnc1 [Example 8, 2-t-butyl-4-cyclohexylphenyl nicotinate]	–	–	1700 mg/kg	56	30 mg/kg	inhibition in vivo at 25 mg/kg [2]: 8%; inhibition in vivo at 25 mg/kg [3, 5]: 9%
O=C(Oc1ccc(C(=O)c2ccc(Cl)cc2)cc1)c1cccnc1 [Example 10, p-chlorobenzoylphenyl nicotinate]	–	29%	–	–	–	–
CC(C)(Oc1ccc(Cl)cc1)C(=O)Oc1ccc(C(=O)CC23CC4CC(CC(C4)C2)C3)cc1 [Example 3, 2-(p-chlorophenoxy)-isobutyric acid-p-(1-adamantylacetyl)-phenyl ester]	35%	27%	–	–	–	–
CCOC(=O)C(C)(C)Oc1ccc(Cl)cc1 [clofibrate, ethyl ester of 2-(p-chlorophenoxy)-isobutyric acid, reference compound]	8%	–	1500 mg/kg	–	~300 mg/kg	cases with cholesterol (CH) in the β- and α-lipoproteins further increased ([1]; in vivo): about 20%; fall of the initial values of triglycerides (TG) and pre-β-lipoproteins ([1]; in vivo): up to 50%
CC(C)(Oc1ccc(Cl)cc1)C(=O)OCc1cccnc1 [3-pyridyl carbinol ester of clofibric acid]	–	–	–	–	–	influence on lipids (in words) ([1]; background): effective lipid- and cholesterol-lowering component
O=C(Oc1cccc2c1CCCC2)c1cccnc1 [Example 7, 5,6,7,8-Tetrahydro-1-naphthyl-nicotinate]	18%	22%	–	–	–	–
O=C(O)c1cccnc1 [Nicotinic acid, nicotinic acid, reference compound]	–	–	4000 mg/kg	8	~500 mg/kg	influence on lipids (in words) ([1]; background): act predominantly on elevated cholesterol values and free fatty acids; side effects (in words) ([1]; background): flush, headache, nausea, vomiting; reduction of free fatty acids (in words) [1]: great reduction of the free fatty acids; inhibition in vivo at 100 mg/kg ([3]; 18 h): 7%
O=C(Oc1ccc(C2CCCCC2)cc1)c1cccnc1 [Example 1, p-cyclohexylphenyl nicotinate]	19%	45%	2200 mg/kg	44	50 mg/kg	–
Cl.O=C(Oc1ccccc1C1CCCCC1)c1cccnc1 [Example 6, o-cyclohexylphenyl nicotinate hydrochloride]	–	–	2050 mg/kg	93	22 mg/kg	inhibition in vivo at 25 mg/kg [2]: 16%; inhibition in vivo at 25 mg/kg [3, 5]: 18%
